According to PubChem BioAssay AID1963962 (Molecular Pharmacology Branch, DTP, NCI, 2024):

Test system: 967376-340-R-J2-PDC multicell spheroid viability
Test: Anticancer human tumor 967376-340-R-J2-PDC patient-derived colon adenocarcinoma cell line growth inhibition [PI3K]
Conditions: for IC50: curve of first compound; for viability, T/C: stronger effect = lower value
Text: Combinatorial screen of targeted agents with the PI3K inhibitors inavolisib, alpelisib, duvelisib, and copanlisib in multi-cell type tumor spheroids
A high-throughput screen of multi-cell type tumor spheroids was designed to identify active combinations of targeted small molecules and PI3K pathway inhibitors. Complex spheroids include a stromal component modeled by human endothelial cells (HUVEC) and fibroblasts modeled by human mesenchymal stem cells (MSCs). The concentration ranges selected for each drug and investigational agent were based upon clinically achievable concentrations if the clinical Cmax of the agent was known.
Compounds. The drugs and investigational agents: inavolisib (NSC800729), alpelisib (NSC765974), duvelisib (NSC772469), copanlisib (NSC816437), ipatasertib (NSC767898), afuresertib (NSC778305), talazoparib (NSC767125), sapanisertib (NSC764658), selumetinib (NSC741078), tovorafenib (DAY101, NSC766906), vemurafenib (NSC761431), ravoxertinib (NSC781343), sotorasib (NSC818433), MRTX1133 (NSC 836407), abemaciclib (NSC 768073), palbociclib (NSC758247), venetoclax (NSC 766270), SY5609 (NSC837396), enzalutamide (NSC755605), and darolutamide (NSC825331), were obtained from the National Cancer Institute (NCI) Developmental Therapeutics Program Chemical Repository. The FDA-approved anticancer drug set is available from the NCI Developmental Therapeutics Program. […] The stock solutions were prepared in dimethyl sulfoxide (DMSO, Sigma-Aldrich, St. Louis, MO, cat. D2650) at 800-fold the tested concentration and stored at -70 degrees C prior to their use. All drugs and investigational agents were tested over a range starting from a high concentration at or near the clinical Cmax and decreasing in half-log increments. If the clinical Cmax for an agent had not been determined, the highest concentration tested was 10 microM.
Cell Culture. All cells were maintained in an incubator at 37 degrees C and 5% CO2 with 95% humidity. The PDC lines were cultured according to standard operating procedures established by the NCI PDMR (https://pdmr.cancer.gov/sops/default.htm). All PDCs were thawed and cultured in Matrigel-coated flasks prepared with a working solution of 1X Ham's F-12 nutrient mix, without supplementation (Invitrogen, Waltham, MA, cat. 11765054), 100 U/mL penicillin-streptomycin (Invitrogen, cat. 15140122), and 2.5% Matrigel (Corning Inc., Corning, NY, cat. 354248) for the first three passages. The 354836-022-R-J1-PDC, 475296-252-R-J1-PDC, and 997726-040-R-J2-PDC lines were cultured in 6A media, which includes advanced DMEM/F-12 (Thermo Fisher Scientific, cat. 12634028), 10 mM HEPES (Thermo Fisher Scientific, cat. 15630080), 1X GlutaMAX supplement (Thermo Fisher Scientific, cat. 35050061), 0.1 mg/mL primocin (InvivoGen, San Diego, CA, cat. ant-pm-2), 10% defined fetal bovine serum, heat inactivated (HyClone Laboratories Inc., Logan, UT, cat. SH30070.03HI), 50% L-WRN conditioned media (ATCC, cat. CRL-3276), 1.25 mM N-Acetyl-L-cysteine (Sigma-Aldrich, cat. A9165), 10 mM nicotinamide (Sigma-Aldrich, cat. N0636), 1X B-27 supplement (Thermo Fisher Scientific, cat. 17504044), 1X N-2 supplement (Thermo Fisher Scientific, cat. 17502048), and 10 microM Y-27632 dihydrochloride (Tocris Bioscience, Bristol, United Kingdom, cat. 1254). The 624824-186-R-J2-PDC line was cultured in 6C/Colon 1B media, which includes all 6A media components plus 50 ng/mL human EGF recombinant protein (Thermo Fisher Scientific, cat. PHG0311). […]

[1] = second compound 0.00316 µM, first compound 0.000316 µM
[2] = second compound 0.00316 µM, first compound 0.001 µM
[3] = second compound 0.00316 µM, first compound 0.00316 µM
[4] = second compound 0.00316 µM, first compound 0.01 µM
[5] = second compound 0.00316 µM, first compound 0.0316 µM
[6] = second compound 0.00316 µM, first compound 0.1 µM
[7] = second compound 0.01 µM, first compound 0.000316 µM
[8] = second compound 0.01 µM, first compound 0.001 µM
[9] = second compound 0.01 µM, first compound 0.00316 µM
[10] = second compound 0.01 µM, first compound 0.01 µM
[11] = second compound 0.01 µM, first compound 0.0316 µM
[12] = second compound 0.01 µM, first compound 0.1 µM
[13] = second compound 0.0316 µM, first compound 0.000316 µM
[14] = second compound 0.0316 µM, first compound 0.001 µM
[15] = second compound 0.0316 µM, first compound 0.00316 µM
[16] = second compound 0.0316 µM, first compound 0.01 µM
[17] = second compound 0.0316 µM, first compound 0.0316 µM
[18] = second compound 0.0316 µM, first compound 0.1 µM
[19] = second compound 0.1 µM, first compound 0.000316 µM
[20] = second compound 0.1 µM, first compound 0.001 µM
[21] = second compound 0.1 µM, first compound 0.00316 µM
[22] = second compound 0.1 µM, first compound 0.01 µM
[23] = second compound 0.1 µM, first compound 0.0316 µM
[24] = second compound 0.1 µM, first compound 0.1 µM
[25] = second compound 0.316 µM, first compound 0.000316 µM
[26] = second compound 0.316 µM, first compound 0.001 µM
[27] = second compound 0.316 µM, first compound 0.00316 µM
[28] = second compound 0.316 µM, first compound 0.01 µM
[29] = second compound 0.316 µM, first compound 0.0316 µM
[30] = second compound 0.316 µM, first compound 0.1 µM
[31] = second compound 1 µM, first compound 0.000316 µM
[32] = second compound 1 µM, first compound 0.001 µM
[33] = second compound 1 µM, first compound 0.00316 µM
[34] = second compound 1 µM, first compound 0.01 µM
[35] = second compound 1 µM, first compound 0.0316 µM
[36] = second compound 1 µM, first compound 0.1 µM
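Note: spheroids exposed to agents for 7 days before read-out.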
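Throughout, for viability, T/C: luminescence used as surrogate of cell viability.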

With `CC(=O)c1c(C)c2cnc(Nc3ccc(N4CCNCC4)cn3)nc2n(C2CCCC2)c1=O` + CC(Nc1ccc2c(c1)OCCn1cc(N3C(=O)OCC3C(F)F)nc1-2)C(N)=O the IC50 (second compound 0.00316 µM) was over 100 nM, the IC50 (second compound 0.01 µM) was over 100 nM and the IC50 (second compound 0.0316 µM) was over 100 nM. For the same compound, the IC50 (second compound 0.1 µM) was over 100 nM, the IC50 (second compound 0.316 µM) was over 100 nM and the IC50 (second compound 1 µM) was over 100 nM. It also gave a viability, T/C [1] of 111%, a viability, T/C [2] of 79.3% and a viability, T/C [3] of 93.8%. It also gave a viability, T/C [4] of 102%, a viability, T/C [5] of 114% and a viability, T/C [6] of 87.4%. The viability, T/C [7] was 100%, the viability, T/C [8] was 101% and the viability, T/C [9] was 96.4%. For the same compound, the viability, T/C [10] was 93%, the viability, T/C [11] was 94.7% and the viability, T/C [12] was 75.8%. The viability, T/C [13] was 92.7%, the viability, T/C [14] was 88.4% and the viability, T/C [15] was 70.7%. It also gave a viability, T/C [16] of 117%, a viability, T/C [17] of 91.3% and a viability, T/C [18] of 84.7%. The viability, T/C [19] was 87.9%, the viability, T/C [20] was 78.8% and the viability, T/C [21] was 96.3%. It also gave a viability, T/C [22] of 64.3%, a viability, T/C [23] of 90.2% and a viability, T/C [24] of 79.7%. It also gave a viability, T/C [25] of 64.3%, a viability, T/C [26] of 74.7% and a viability, T/C [27] of 72.8%. For the same compound, the viability, T/C [28] was 72.1%, the viability, T/C [29] was 72.9% and the viability, T/C [30] was 67.8%. It also gave a viability, T/C [31] of 65%, a viability, T/C [32] of 64.2% and a viability, T/C [33] of 77.8%. The viability, T/C [34] was 55.7%, the viability, T/C [35] was 61.6% and the viability, T/C [36] was 50.9%.

`CC(C)n1nc(-c2ccc3oc(N)nc3c2)c2c(N)ncnc21` + CC(Nc1ccc2c(c1)OCCn1cc(N3C(=O)OCC3C(F)F)nc1-2)C(N)=O gave an IC50 (second compound 0.00316 µM) of over 100 nM, an IC50 (second compound 0.01 µM) of over 100 nM and an IC50 (second compound 0.0316 µM) of 71.9 nM. The IC50 (second compound 0.1 µM) was 66.5 nM, the IC50 (second compound 0.316 µM) was 20.7 nM and the IC50 (second compound 1 µM) was 36.9 nM. For the same compound, the viability, T/C [1] was 82.3%, the viability, T/C [2] was 69.7% and the viability, T/C [3] was 69.4%. It also gave a viability, T/C [4] of 76.4%, a viability, T/C [5] of 73.1% and a viability, T/C [6] of 51.9%. It also gave a viability, T/C [7] of 106%, a viability, T/C [8] of 90.1% and a viability, T/C [9] of 67.3%. The viability, T/C [10] was 68.7%, the viability, T/C [11] was 68.1% and the viability, T/C [12] was 43.3%. It also gave a viability, T/C [13] of 81.1%, a viability, T/C [14] of 87% and a viability, T/C [15] of 65.4%. It also gave a viability, T/C [16] of 74.4%, a viability, T/C [17] of 60.5% and a viability, T/C [18] of 45.2%. The viability, T/C [19] was 67.3%, the viability, T/C [20] was 79.8% and the viability, T/C [21] was 91.5%. The viability, T/C [22] was 69.5%, the viability, T/C [23] was 56.9% and the viability, T/C [24] was 46.3%. The viability, T/C [25] was 57.7%, the viability, T/C [26] was 61.9% and the viability, T/C [27] was 54.6%. It also gave a viability, T/C [28] of 64.7%, a viability, T/C [29] of 44.3% and a viability, T/C [30] of 33.1%. For the same compound, the viability, T/C [31] was 53.9%, the viability, T/C [32] was 54.8% and the viability, T/C [33] was 63.8%. The viability, T/C [34] was 47.5%, the viability, T/C [35] was 54% and the viability, T/C [36] was 38.4%.

In the case of `CCCS(=O)(=O)Nc1ccc(F)c(C(=O)c2c[nH]c3ncc(-c4ccc(Cl)cc4)cc23)c1F` + CC(Nc1ccc2c(c1)OCCn1cc(N3C(=O)OCC3C(F)F)nc1-2)C(N)=O, the IC50 (second compound 0.00316 µM) is reported as over 10000 nM, the IC50 (second compound 0.01 µM) is reported as 9810 nM and the IC50 (second compound 0.0316 µM) is reported as over 10000 nM. For the same compound, the IC50 (second compound 0.1 µM) was 8120 nM, the IC50 (second compound 0.316 µM) was over 10000 nM and the IC50 (second compound 1 µM) was 3830 nM. For the same compound, the viability, T/C [5] was 87.1%, the viability, T/C [6] was 77.7% and the viability, T/C (second compound 0.00316 µM, first compound 0.316 µM) was 98.3%. The viability, T/C (second compound 0.00316 µM, first compound 1 µM) was 60.2%, the viability, T/C (second compound 0.00316 µM, first compound 3.16 µM) was 81.4% and the viability, T/C (second compound 0.00316 µM, first compound 10 µM) was 53.4%. It also gave a viability, T/C [11] of 95.5%, a viability, T/C [12] of 86.5% and a viability, T/C (second compound 0.01 µM, first compound 0.316 µM) of 88.7%. The viability, T/C (second compound 0.01 µM, first compound 1 µM) was 70.3%, the viability, T/C (second compound 0.01 µM, first compound 3.16 µM) was 89.4% and the viability, T/C (second compound 0.01 µM, first compound 10 µM) was 49.6%. The viability, T/C [17] was 72%, the viability, T/C [18] was 79.6% and the viability, T/C (second compound 0.0316 µM, first compound 0.316 µM) was 65.2%. For the same compound, the viability, T/C (second compound 0.0316 µM, first compound 1 µM) was 93.3%, the viability, T/C (second compound 0.0316 µM, first compound 3.16 µM) was 91.9% and the viability, T/C (second compound 0.0316 µM, first compound 10 µM) was 67.8%. For the same compound, the viability, T/C [23] was 69.9%, the viability, T/C [24] was 73.8% and the viability, T/C (second compound 0.1 µM, first compound 0.316 µM) was 80.3%. It also gave a viability, T/C (second compound 0.1 µM, first compound 1 µM) of 77.9%, a viability, T/C (second compound 0.1 µM, first compound 3.16 µM) of 81.5% and a viability, T/C (second compound 0.1 µM, first compound 10 µM) of 44.1%. It also gave a viability, T/C [29] of 64.5%, a viability, T/C [30] of 61.3% and a viability, T/C (second compound 0.316 µM, first compound 0.316 µM) of 73.8%. For the same compound, the viability, T/C (second compound 0.316 µM, first compound 1 µM) was 76.2%, the viability, T/C (second compound 0.316 µM, first compound 3.16 µM) was 75.2% and the viability, T/C (second compound 0.316 µM, first compound 10 µM) was 37.6%. For the same compound, the viability, T/C [35] was 61.5%, the viability, T/C [36] was 55.5% and the viability, T/C (second compound 1 µM, first compound 0.316 µM) was 58.9%. It also gave a viability, T/C (second compound 1 µM, first compound 1 µM) of 56%, a viability, T/C (second compound 1 µM, first compound 3.16 µM) of 52.6% and a viability, T/C (second compound 1 µM, first compound 10 µM) of 39.5%.
